Reference: ChEMBL document CHEMBL1201861, “Genomics of Drug Sensitity in Cancer screening data, Wellcome Trust Sanger Institute”

Legend:
Experiment in all cases: cells
Details in all cases: Homo sapiens
HCC38 = assay type: functional, cell-based;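 also: cell viability assay on the human HCC38 cell line, with IC50 marking the concentration that inhibits cell growth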
Description: SANGER: Inhibition of human HCC38 cell growth in a cell viability assay.

HEC-1 = assay type: functional, cell-based;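 also: growth inhibition of the cell line, read out with a cell viability assay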
Description: SANGER: Inhibition of human HEC-1 cell growth in a cell viability assay.

MCF7 = assay type: functional, cell-based;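 also: growth inhibition of human MCF7 cells, read out with a cell viability assay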
Description: SANGER: Inhibition of human MCF7 cell growth in a cell viability assay.

MIA PaCa-2 = assay type: functional, cell-based;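 also: growth inhibition of MIA PaCa-2 cells, read out with a cell viability assay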
Description: SANGER: Inhibition of human MIA-PaCa-2 cell growth in a cell viability assay.

P12-Ichikawa = assay type: functional, cell-based
MKN-45 = assay type: functional, cell-based;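 also: growth inhibition of human MKN-45 cells, measured with a cell viability assay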
Description: SANGER: Inhibition of human MKN45 cell growth in a cell viability assay.

A204 = assay type: functional, cell-based;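 also: growth inhibition of human A204 cells, read out with a cell viability assay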
Description: SANGER: Inhibition of human A204 cell growth in a cell viability assay.

OVCAR-8 = assay type: functional, cell-based;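 also: growth inhibition of human OVCAR-8 cells, read out by a cell viability assay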
Description: SANGER: Inhibition of human OVCAR-8 cell growth in a cell viability assay.

OVCAR-3 = assay type: functional, cell-based;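 also: growth inhibition of human OVCAR-3 cells, determined by a cell viability assay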
Description: SANGER: Inhibition of human OVCAR-3 cell growth in a cell viability assay.

M14 = assay type: functional, cell-based;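 also: growth inhibition of M14 cells, read out with a cell viability assay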
Description: SANGER: Inhibition of human M14 cell growth in a cell viability assay.

S-117 = assay type: functional, cell-based
Description: SANGER: Inhibition of human S-117 cell growth in a cell viability assay.

MG-63 = assay type: functional, cell-based;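 also: growth inhibition of human MG-63 cells, read out with a cell viability assay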
Description: SANGER: Inhibition of human MG-63 cell growth in a cell viability assay.

COLO-741 = assay type: functional, cell-based
Description: SANGER: Inhibition of human COLO-741 cell growth in a cell viability assay.

RPMI-2650 = assay type: functional, cell-based
Description: SANGER: Inhibition of human RPMI-2650 cell growth in a cell viability assay.

ASPC1 = assay type: functional, cell-based;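 also: growth inhibition of AsPC-1 cells, read out with a cell viability assay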
Description: SANGER: Inhibition of human AsPC-1 cell growth in a cell viability assay.

UACC-62 = assay type: functional, cell-based;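 also: growth inhibition of human UACC-62 cells, read out by a cell viability assay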
Description: SANGER: Inhibition of human UACC-62 cell growth in a cell viability assay.

NB7 = assay type: functional, cell-based;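 also: growth inhibition of NB7 cells, read out with a cell viability assay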
Description: SANGER: Inhibition of human NB7 cell growth in a cell viability assay.

MC-IXC = assay type: functional, cell-based;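 also: growth inhibition of MC-IXC cells, read out with a cell viability assay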
Description: SANGER: Inhibition of human MC-IXC cell growth in a cell viability assay.

CAKI-1 = assay type: functional, cell-based;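 also: growth inhibition of CAKI-1 cells, measured by a cell viability assay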
Description: SANGER: Inhibition of human CAKI-1 cell growth in a cell viability assay.

RVH-421 = assay type: functional, cell-based
Description: SANGER: Inhibition of human RVH-421 cell growth in a cell viability assay.

NCI-H2122 = assay type: functional, cell-based;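 also: growth inhibition of the cells, read out with a cell viability assay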
Description: SANGER: Inhibition of human NCI-H2122 cell growth in a cell viability assay.

RT-112 = assay type: functional, cell-based
Description: SANGER: Inhibition of human RT-112 cell growth in a cell viability assay.

SK-MES-1 = assay type: functional, cell-based;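 also: growth inhibition of human SK-MES-1 cells, read out with a cell viability assay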
Description: SANGER: Inhibition of human SK-MES-1 cell growth in a cell viability assay.

KP-N-YN = assay type: functional, cell-based;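 also: growth inhibition of KP-N-YN cells, read out with a cell viability assay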
Description: SANGER: Inhibition of human KP-N-YN cell growth in a cell viability assay.

CHP-212 = assay type: functional, cell-based
Description: SANGER: Inhibition of human CHP-212 cell growth in a cell viability assay.

MDA-MB-175-VII = assay type: functional, cell-based
MDA-MB-157 = assay type: functional, cell-based
Description: SANGER: Inhibition of human MDA-MB-157 cell growth in a cell viability assay.

NCI-H441 = assay type: functional, cell-based;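 also: growth inhibition of NCI-H441 cells, read out with a cell viability assay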
Description: SANGER: Inhibition of human NCI-H441 cell growth in a cell viability assay.

CAL-85-1 = assay type: functional, cell-based;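 also: growth inhibition of human CAL-85-1 cells, read out with a cell viability assay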
Description: SANGER: Inhibition of human CAL-85-1 cell growth in a cell viability assay.

AN3-CA = assay type: functional, cell-based;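 also: growth inhibition of human AN3-CA cells measured by a cell viability assay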
Description: SANGER: Inhibition of human AN3-CA cell growth in a cell viability assay.

HCC70 = assay type: functional, cell-based;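 also: cell viability assay measuring how strongly the compound suppresses proliferation of HCC70 cells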
Description: SANGER: Inhibition of human HCC70 cell growth in a cell viability assay.

DK-MG = assay type: functional, cell-based;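 also: growth inhibition of DK-MG cells, read out with a cell viability assay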
Description: SANGER: Inhibition of human DK-MG cell growth in a cell viability assay.

MDA-MB-231 = assay type: functional, cell-based
Description: SANGER: Inhibition of human MDA-MB-231 cell growth in a cell viability assay.

SK-LU-1 = assay type: functional, cell-based;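 also: cell viability assay measuring growth inhibition of human SK-LU-1 cells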
Description: SANGER: Inhibition of human SK-LU-1 cell growth in a cell viability assay.

C32 = assay type: functional, cell-based;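 also: cell viability assay, with IC50 reflecting inhibition of C32 cell growth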
Description: SANGER: Inhibition of human C32 cell growth in a cell viability assay.

SW756 = assay type: functional, cell-based;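 also: growth inhibition of human SW756 cells, read out with a cell viability assay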
Description: SANGER: Inhibition of human SW756 cell growth in a cell viability assay.

CAMA-1 = assay type: functional, cell-based;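 also: growth inhibition of CAMA-1 cells, read out with a cell viability assay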
Description: SANGER: Inhibition of human CAMA-1 cell growth in a cell viability assay.

KYSE-520 cell line = assay type: functional, cell-based;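 also: growth inhibition of human KYSE-520 cells, read out with a viability assay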
Description: SANGER: Inhibition of human KYSE-520 cell growth in a cell viability assay.

Daoy = assay type: functional, cell-based;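 also: daoy cell growth inhibition, read out as cell viability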
Description: SANGER: Inhibition of human Daoy cell growth in a cell viability assay.

G-402 = assay type: functional, cell-based
Description: SANGER: Inhibition of human G-402 cell growth in a cell viability assay.

HuCCT-1 = assay type: functional, cell-based, HuCCT1;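 also: growth inhibition of HuCCT-1 cells, read out by a cell viability assay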
Description: SANGER: Inhibition of human HuCCT1 cell growth in a cell viability assay.

SAOS-2 = assay type: functional, cell-based;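 also: growth inhibition of human Saos-2 cells determined by a cell viability assay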
Description: SANGER: Inhibition of human Saos-2 cell growth in a cell viability assay.

KYSE-70 cell line = assay type: functional, cell-based;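 also: cell viability assay read-out, with IC50 expressing suppression of KYSE-70 cell growth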
Description: SANGER: Inhibition of human KYSE-70 cell growth in a cell viability assay.

SW1573 = assay type: functional, cell-based;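 also: growth inhibition of SW1573 cells, read out with a cell viability assay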
Description: SANGER: Inhibition of human SW1573 cell growth in a cell viability assay.

OAW-28 = assay type: functional, cell-based;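 also: growth inhibition of OAW-28 cells, read out with a cell viability assay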
Description: SANGER: Inhibition of human OAW-28 cell growth in a cell viability assay.

PC-3 = assay type: functional, cell-based;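 also: cell viability assay measuring growth inhibition of PC-3 cells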
Description: SANGER: Inhibition of human PC-3 cell growth in a cell viability assay.

LCLC-103H cell line = assay type: functional, cell-based
Description: SANGER: Inhibition of human LCLC-103H cell growth in a cell viability assay.

TCC-SUP = assay type: functional, cell-based;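 also: growth inhibition of TCC-SUP cells, read out with a cell viability assay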
Description: SANGER: Inhibition of human TCCSUP cell growth in a cell viability assay.

PFSK-1 = assay type: functional, cell-based;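 also: cell viability assay measuring how strongly compounds suppress growth of human PFSK-1 cells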
Description: SANGER: Inhibition of human PFSK-1 cell growth in a cell viability assay.

UO-31 = assay type: functional, cell-based;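 also: cell viability assay measuring inhibition of cell growth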
Description: SANGER: Inhibition of human U031 cell growth in a cell viability assay.

NCI-H810 = assay type: functional, cell-based;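 also: IC50 reflects inhibition of cancer cell line growth, read out with a cell viability assay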
Description: SANGER: Inhibition of human NCI-H810 cell growth in a cell viability assay.

C[C@]12O[C@H](C[C@]1(O)CO)n1c3ccccc3c3c4c(c5c6ccccc6n2c5c31)CNC4=O [LESTAURTINIB]
IC50 (HCC38): > 2000 nM
IC50 (HEC-1): 374 nM
IC50 (MCF7): > 2000 nM
IC50 (MIA PaCa-2): 862 nM
IC50 (P12-Ichikawa): 26.2 nM
IC50 (MKN-45): 1120 nM
IC50 (A204): 152 nM
IC50 (OVCAR-8): 753 nM
IC50 (OVCAR-3): > 2000 nM
IC50 (M14): 50.6 nM
IC50 (S-117): 1120 nM
IC50 (MG-63): 445 nM
IC50 (COLO-741): 1430 nM
IC50 (RPMI-2650): 1190 nM
IC50 (ASPC1): 1620 nM
IC50 (UACC-62): 1120 nM
IC50 (NB7): 899 nM
IC50 (MC-IXC): 13.5 nM
IC50 (CAKI-1): 334 nM
IC50 (RVH-421): 244 nM
IC50 (NCI-H2122): 1920 nM
IC50 (RT-112): 464 nM
IC50 (SK-MES-1): 46.5 nM
IC50 (KP-N-YN): 1960 nM
IC50 (CHP-212): 82.2 nM
IC50 (MDA-MB-175-VII): 1140 nM
IC50 (MDA-MB-157): 276 nM
IC50 (NCI-H441): > 2000 nM
IC50 (CAL-85-1): > 2000 nM
IC50 (AN3-CA): 1250 nM
IC50 (HCC70): > 2000 nM
IC50 (DK-MG): 1100 nM
IC50 (MDA-MB-231): 586 nM
IC50 (SK-LU-1): 256 nM
IC50 (C32): 182 nM
IC50 (SW756): 630 nM
IC50 (CAMA-1): 1040 nM
IC50 (KYSE-520 cell line): 1930 nM
IC50 (Daoy): 1040 nM
IC50 (G-402): 1100 nM
IC50 (HuCCT-1): 862 nM
IC50 (SAOS-2): 635 nM
IC50 (KYSE-70 cell line): > 2000 nM
IC50 (SW1573): 1070 nM
IC50 (OAW-28): > 2000 nM
IC50 (PC-3): 1710 nM
IC50 (LCLC-103H cell line): > 2000 nM
IC50 (TCC-SUP): 1850 nM
IC50 (PFSK-1): > 2000 nM
IC50 (UO-31): > 2000 nM
IC50 (NCI-H810): 995 nM

C[C@]1(c2nc3c(C(N)=O)cccc3[nH]2)CCCN1 [VELIPARIB]
IC50 (HCC38): > 5000 nM
IC50 (HEC-1): > 5000 nM
IC50 (MCF7): > 5000 nM
IC50 (MIA PaCa-2): > 5000 nM
IC50 (P12-Ichikawa): > 5000 nM
IC50 (MKN-45): > 5000 nM
IC50 (A204): > 5000 nM
IC50 (OVCAR-8): > 5000 nM
IC50 (OVCAR-3): > 5000 nM
IC50 (M14): > 5000 nM
IC50 (S-117): > 5000 nM
IC50 (MG-63): > 5000 nM
IC50 (COLO-741): > 5000 nM
IC50 (RPMI-2650): > 5000 nM
IC50 (ASPC1): > 5000 nM
IC50 (UACC-62): > 5000 nM
IC50 (NB7): > 5000 nM
IC50 (MC-IXC): > 5000 nM
IC50 (CAKI-1): > 5000 nM
IC50 (RVH-421): > 5000 nM
IC50 (NCI-H2122): > 5000 nM
IC50 (RT-112): > 5000 nM
IC50 (SK-MES-1): > 5000 nM
IC50 (KP-N-YN): > 5000 nM
IC50 (CHP-212): > 5000 nM
IC50 (MDA-MB-175-VII): > 5000 nM
IC50 (MDA-MB-157): > 5000 nM
IC50 (NCI-H441): > 5000 nM
IC50 (CAL-85-1): > 5000 nM
IC50 (AN3-CA): > 5000 nM
IC50 (HCC70): > 5000 nM
IC50 (DK-MG): > 5000 nM
IC50 (MDA-MB-231): > 5000 nM
IC50 (SK-LU-1): > 5000 nM
IC50 (C32): > 5000 nM
IC50 (SW756): > 5000 nM
IC50 (CAMA-1): > 5000 nM
IC50 (KYSE-520 cell line): > 5000 nM
IC50 (Daoy): > 5000 nM
IC50 (G-402): > 5000 nM
IC50 (HuCCT-1): > 5000 nM
IC50 (SAOS-2): > 5000 nM
IC50 (KYSE-70 cell line): > 5000 nM
IC50 (SW1573): > 5000 nM
IC50 (OAW-28): > 5000 nM
IC50 (PC-3): > 5000 nM
IC50 (LCLC-103H cell line): > 5000 nM
IC50 (TCC-SUP): > 5000 nM
IC50 (PFSK-1): > 5000 nM
IC50 (UO-31): > 5000 nM
IC50 (NCI-H810): > 5000 nM

CC[C@]1(O)C[C@@H]2CN(CCc3c([nH]c4ccccc34)[C@@](C(=O)OC)(c3cc4c(cc3OC)N(C)[C@H]3[C@@](O)(C(=O)OC)[C@H](OC(C)=O)[C@]5(CC)C=CCN6CC[C@]43[C@@H]65)C2)C1 [VINBLASTINE]
IC50 (HCC38): 58.4 nM
IC50 (HEC-1): 11.4 nM
IC50 (MCF7): 31.6 nM
IC50 (MIA PaCa-2): 3.39 nM
IC50 (P12-Ichikawa): 1.7 nM
IC50 (MKN-45): 48.4 nM
IC50 (A204): 8.76 nM
IC50 (OVCAR-8): 6.55 nM
IC50 (OVCAR-3): 46.9 nM
IC50 (M14): 3.19 nM
IC50 (S-117): 5.58 nM
IC50 (MG-63): 14.2 nM
IC50 (COLO-741): 2.14 nM
IC50 (RPMI-2650): 26.6 nM
IC50 (ASPC1): 13.2 nM
IC50 (UACC-62): 8.06 nM
IC50 (NB7): > 100 nM
IC50 (MC-IXC): 2.99 nM
IC50 (CAKI-1): 24.6 nM
IC50 (RVH-421): 7.25 nM
IC50 (NCI-H2122): 3.44 nM
IC50 (RT-112): 2.71 nM
IC50 (SK-MES-1): 8.64 nM
IC50 (KP-N-YN): 46.4 nM
IC50 (CHP-212): 3.55 nM
IC50 (MDA-MB-175-VII): > 100 nM
IC50 (MDA-MB-157): 9.06 nM
IC50 (NCI-H441): > 100 nM
IC50 (CAL-85-1): > 100 nM
IC50 (AN3-CA): 9.76 nM
IC50 (HCC70): 20.8 nM
IC50 (DK-MG): 6.65 nM
IC50 (MDA-MB-231): 44.6 nM
IC50 (SK-LU-1): 18.7 nM
IC50 (C32): > 100 nM
IC50 (SW756): 14.7 nM
IC50 (CAMA-1): 32 nM
IC50 (KYSE-520 cell line): 47.6 nM
IC50 (Daoy): 3.1 nM
IC50 (G-402): 17.6 nM
IC50 (HuCCT-1): 17.3 nM
IC50 (SAOS-2): 32.3 nM
IC50 (KYSE-70 cell line): 48.4 nM
IC50 (SW1573): 33.2 nM
IC50 (OAW-28): 40.7 nM
IC50 (PC-3): 33.4 nM
IC50 (LCLC-103H cell line): 1.5 nM
IC50 (TCC-SUP): 23.6 nM
IC50 (PFSK-1): 4.97 nM
IC50 (UO-31): 13.9 nM
IC50 (NCI-H810): 68.7 nM
